Assay results from patent publication US20200022370A1, “MICROBIOCIDAL OXADIAZOLE DERIVATIVES” (SYNGENTA PARTICIPATIONS AG, priority 2016, published 2020).

tested on: Glomerella lacenarium (Colletotrichum lacenarium); assay: Glomerella lacenarium (Colletotrichum lacenarium) liquid culture / cucumber / preventative (anthracnose); assay type: cell-based; details: 20 ppm, liquid culture in PDB, 24° C., inhibition of growth measured photometrically 3 to 4 days after application, vs untreated, read-out: disease control
Method: Mycelia fragments or conidia suspensions of a fungus prepared either freshly from liquid cultures of the fungus or from cryogenic storage, are directly mixed into nutrient broth. DMSO solutions of the test compound (max. 10 mg/ml) are diluted with 0.025% Tween20 by a factor of 50 and 10 μl of this solution is pipetted into a microtiter plate (96-well format). The nutrient broth containing the fungal spores/mycelia fragments is then added to give an end concentration of the tested compound. The test plates are incubated in the dark at 24° C. and 96% relative humidity. The inhibition of fungal growth is determined photometrically after 2 to 7 days, depending on the pathosystem, and percent antifungal activity relative to the untreated check is calculated.
Example 4: Fungicidal Activity Against Glomerella lacenarium (Colletotrichum lacenarium) Liquid Culture/Cucumber/Preventative (Anthracnose)
Conidia of the fungus from cryogenic storage are directly mixed into nutrient broth (PDB-potato dextrose broth). After placing a (DMSO) solution of test compound into a microtiter plate (96-well format), the nutrient broth containing the fungal spores is added. The test plates are incubated at 24° C. and the inhibition of growth is measured photometrically 3 to 4 days after application.
The following compounds at 20 ppm in the applied Formulation give at least 80% disease control in this test when compared to untreated control under the same conditions, which show extensive disease development.

| Compound | inhibition of growth at 20 ppm [%] |
| --- | --- |
| O=C(Cc1ccc2c(c1)OCO2)Nc1ccc(-c2noc(C(F)(F)F)n2)nc1 [Compound 1.48, 2-(1,3-benzodioxol-5-yl)-N-[6-[5-(trifluoromethyl)-1,2,4-oxadiazol-3-yl]-3-pyridyl]acetamide] | ≥ 80 |
| CON(C)C(=O)Nc1ccc(-c2noc(C(F)(F)F)n2)nc1 [Compound 1.65, 1-methoxy-1-methyl-3-[6-[5-(trifluoromethyl)-1,2,4-oxadiazol-3-yl]-3-pyridyl]urea] | ≥ 80 |
| CC(Oc1ccccc1)C(=O)Nc1ccc(-c2noc(C(F)(F)F)n2)cc1 (stereo not drawn) [Compound 1.79, 2-phenoxy-N-[4-[5-(trifluoromethyl)-1,2,4-oxadiazol-3-yl]phenyl] propanamide] | ≥ 80 |
| C=CCCCCC(=O)Nc1ccc(-c2noc(C(F)(F)F)n2)cc1 [Compound 1.93, N-[4-[5-(trifluoromethyl)-1,2,4-oxadiazol-3-yl]phenyl]hept-6-enamide] | ≥ 80 |
| O=C(Cc1ccc(C(F)(F)F)nc1)Nc1ccc(-c2noc(C(F)(F)F)n2)cc1 [Compound 1.108, N-[4-[5-(trifluoromethyl)-1,2,4-oxadiazol-3-yl]phenyl]-2-[6-(trifluoromethyl)-3-pyridyl]acetamide] | ≥ 80 |
| CC(C)CCC(=O)Nc1ccc(-c2noc(C(F)(F)F)n2)cc1 [Compound 1.110, 4-methyl-N-[4-[5-(trifluoromethyl)-1,2,4-oxadiazol-3-yl]phenyl] pentanamide] | ≥ 80 |
| O=C(Cc1cccc(C(F)(F)F)n1)Nc1ccc(-c2noc(C(F)(F)F)n2)cc1 [Compound 1.114, N-[4-[5-(trifluoromethyl)-1,2,4-oxadiazol-3-yl]phenyl]-2-[6-(trifluoromethyl)-2-pyridyl]acetamide] | ≥ 80 |
| O=C(Cc1cc(F)cc(F)c1)Nc1ccc(-c2noc(C(F)(F)F)n2)cc1 [Compound 1.117, 2-(3,5-difluorophenyl)-N-[4-[5-(trifluoromethyl)-1,2,4-oxadiazol-3-yl]phenyl]acetamide] | ≥ 80 |
| O=C(Cc1ccc(OC(F)(F)F)cc1)Nc1ccc(-c2noc(C(F)(F)F)n2)cc1 [Compound 1.119, 2-[4-(trifluoromethoxy)phenyl]-N-[4-[5-(trifluoromethyl)-1,2,4-oxadiazol-3-yl]phenyl]acetamide] | ≥ 80 |
| CN(C(=O)c1ccccc1Cl)c1ccc(-c2noc(C(F)(F)F)n2)cc1 [Compound 1.134, 2-chloro-N-methyl-N-[4-[5-(trifluoromethyl)-1,2,4-oxadiazol-3-yl]phenyl]benzamide] | ≥ 80 |
| CCOCC(=O)Nc1ccc(-c2noc(C(F)(F)F)n2)cc1 [Compound 2.10, 2-ethoxy-N-[4-[5-(trifluoromethyl)-1,2,4-oxadiazol-3-yl]phenyl] acetamide] | ≥ 80 |
| CC1(C)CC1C(=O)Nc1ccc(-c2noc(C(F)(F)F)n2)cc1 (stereo not drawn) [Compound 2.12, 2,2-dimethyl-N-[4-[5-(trifluoromethyl)-1,2,4-oxadiazol-3-yl]phenyl] cyclopropane-carboxamide] | ≥ 80 |
| C=CCON(C)C(=O)Nc1ccc(-c2noc(C(F)(F)F)n2)cc1 [Compound 2.21, 1-allyloxy-1-methyl-3-[4-[5-(trifluoromethyl)-1,2,4-oxadiazol-3-yl]phenyl]urea] | ≥ 80 |
| O=C(NCC(F)(F)F)Nc1ccc(-c2noc(C(F)(F)F)n2)cc1 [Compound 2.22, 1-(2,2,2-trifluoroethyl)-3-[4-[5-(trifluoromethyl)-1,2,4-oxadiazol-3-yl]phenyl]urea] | ≥ 80 |
| CN(C(=O)CC1CC1)c1ccc(-c2noc(C(F)(F)F)n2)cc1 [Compound 2.26, 2-cyclopropyl-N-methyl-N-[4-[5-(trifluoromethyl)-1,2,4-oxadiazol-3-yl]phenyl]acetamide] | ≥ 80 |
